Test results reported in ChEMBL document CHEMBL4340511, “22-Oxocholestane oximes as potential anti-inflammatory drug candidates” (Eur J Med Chem, 2019).
Activity calls are given as the source filed them. No cut-off for these calls is given here.

Experiments:
Type in all cases: functional, organism-based
Mus musculus [1] = test: Antiinflammatory activity against TPA-induced ear edema in CD1 mouse assessed as reduction in weight of ear punches at 125 ug/ear, each surface administered topically for 15 mins prior to TPA challenge and measured after 6 hrs
Mus musculus [2] = test: Antiinflammatory activity in CD1 mouse assessed as reduction in TPA-induced ear flushing at 125 ug/ear, each surface administered topically for 15 mins prior to TPA challenge and measured after 6 hrs
Mus musculus [3] = test: Antiinflammatory activity in CD1 mouse model of TPA-induced ear edema assessed as decrease in IFNgamma expression at 125 ug/ear, each surface administered topically for 15 mins prior to TPA challenge and measured after 6 hrs by qRT-PCR analysis
Mus musculus [4] = test: Antiinflammatory activity in CD1 mouse model of TPA-induced ear edema assessed as decrease in MIF expression at 125 ug/ear, each surface administered topically for 15 mins prior to TPA challenge and measured after 6 hrs by qRT-PCR analysis
Mus musculus [5] = test: Antiinflammatory activity in CD1 mouse model of TPA-induced ear edema assessed as decrease in TNFalpha expression at 125 ug/ear, each surface administered topically for 15 mins prior to TPA challenge and measured after 6 hrs by qRT-PCR analysis
Mus musculus [6] = test: Antiinflammatory activity against TPA-induced ear edema in CD1 mouse assessed as reduction in ear edema at 125 ug/ear, each surface administered topically for 15 mins prior to TPA challenge and measured after 6 hrs
Mus musculus [7] = test: Antiinflammatory activity in CD1 mouse model of TPA-induced ear edema assessed as decrease in IL-6 expression at 125 ug/ear, each surface administered topically for 15 mins prior to TPA challenge and measured after 6 hrs by qRT-PCR analysis
Mus musculus [8] = test: Antiinflammatory activity in CD1 mouse model of TPA-induced ear edema assessed as decrease in COX-2 expression at 125 ug/ear, each surface administered topically for 15 mins prior to TPA challenge and measured after 6 hrs by qRT-PCR analysis
Mus musculus [9] = test: Antiinflammatory activity in CD1 mouse model of TPA-induced ear edema assessed as decrease in IFNgamma expression at 250 ug/ear, each surface administered topically for 15 mins prior to TPA challenge and measured after 6 hrs by qRT-PCR analysis
Mus musculus [10] = test: Antiinflammatory activity against TPA-induced ear edema in CD1 mouse assessed as reduction in weight of ear punches at 225 ug/ear, each surface administered topically for 15 mins prior to TPA challenge and measured after 6 hrs
Mus musculus [11] = test: Antiinflammatory activity in CD1 mouse assessed as reduction in TPA-induced ear flushing at 250 ug/ear, each surface administered topically for 15 mins prior to TPA challenge and measured after 6 hrs
Mus musculus [12] = test: Antiinflammatory activity in CD1 mouse model of TPA-induced ear edema assessed as decrease in MIF expression at 250 ug/ear, each surface administered topically for 15 mins prior to TPA challenge and measured after 6 hrs by qRT-PCR analysis
Mus musculus [13] = test: Antiinflammatory activity in CD1 mouse model of TPA-induced ear edema assessed as decrease in COX-2 expression at 250 ug/ear, each surface administered topically for 15 mins prior to TPA challenge and measured after 6 hrs by qRT-PCR analysis
Mus musculus [14] = test: Antiinflammatory activity against TPA-induced ear edema in CD1 mouse assessed as reduction in ear edema at 225 ug/ear, each surface administered topically for 15 mins prior to TPA challenge and measured after 6 hrs
Mus musculus [15] = test: Antiinflammatory activity in CD1 mouse model of TPA-induced ear edema assessed as decrease in IL-6 expression at 250 ug/ear, each surface administered topically for 15 mins prior to TPA challenge and measured after 6 hrs by qRT-PCR analysis
Mus musculus [16] = test: Antiinflammatory activity in CD1 mouse model of TPA-induced ear edema assessed as decrease in TNFalpha expression at 250 ug/ear, each surface administered topically for 15 mins prior to TPA challenge and measured after 6 hrs by qRT-PCR analysis

| SMILES | Activity (Mus musculus [1]) | Activity (Mus musculus [2]) | Activity (Mus musculus [3]) | Activity (Mus musculus [4]) | Activity (Mus musculus [5]) | Activity (Mus musculus [6]) | Activity (Mus musculus [7]) | Activity (Mus musculus [8]) | Activity (Mus musculus [9]) | Activity (Mus musculus [10]) | Activity (Mus musculus [11]) | Activity (Mus musculus [12]) | Activity (Mus musculus [13]) | Activity (Mus musculus [14]) | Activity (Mus musculus [15]) | Activity (Mus musculus [16]) |
| --- | --- | --- | --- | --- | --- | --- | --- | --- | --- | --- | --- | --- | --- | --- | --- | --- |
| CC(=O)O[C@H]1C[C@H]2[C@@H]3CC=C4C[C@@H](O)CC[C@]4(C)[C@H]3CC[C@]2(C)[C@H]1[C@H](C)C(=O)CC[C@@H](C)/C=N/O | inactive |  |  |  |  |  |  |  |  |  |  |  |  |  |  |  |
| CC(=O)O[C@H]1C[C@H]2[C@@H]3CC=C4C[C@@H](O)CC[C@]4(C)[C@H]3CC[C@]2(C)[C@H]1[C@H](C)C(=O)CC/C(C)=N/O | Active | inactive | inactive | Active | Active | Active | Active | Active |  |  |  |  |  |  |  |  |
| CC(=O)O[C@H]1C[C@H]2[C@@H]3CC=C4C[C@@H](O)CC[C@]4(C)[C@H]3CC[C@]2(C)[C@H]1[C@H](C)C(=O)CC[C@H](C)/C=N/O | Active | inactive | inactive | Active | Active | Active | Active | Active |  |  |  |  |  |  |  |  |
| CC(=O)O[C@H]1CC[C@@]2(C)C(=CC[C@H]3[C@@H]4C[C@H](OC(C)=O)[C@H]([C@H](C)C(=O)CC[C@@H](C)/C=N/O)[C@@]4(C)CC[C@@H]32)C1 | inactive |  |  |  |  |  |  |  |  |  |  |  |  |  |  |  |
| CC(=O)O[C@H]1CC[C@@]2(C)C(=CC[C@H]3[C@@H]4C[C@H](OC(C)=O)[C@H]([C@H](C)C(=O)CC[C@H](C)/C=N/O)[C@@]4(C)CC[C@@H]32)C1 | Active | inactive | inactive | Active | Active | Active | Active | Active |  |  |  |  |  |  |  |  |
| C[C@@H]1C[C@H]2[C@@H]3CCC4=CC(=O)C=C[C@]4(C)[C@@]3(F)[C@@H](O)C[C@]2(C)[C@@]1(O)C(=O)CO |  |  |  |  |  |  |  |  | inactive | Active | inactive | Active | Active | Active | Active | Active |
